Results taken from patent US8344139B2, “Process for preparing crystalline polymorphic forms of (6R)-L-erythro-tetrahydrobiopterin dihydrochloride” (Merck Eprova AG, priority 2003, dated 2013).
“Also recorded” adds a separate entry of the source.

Assays:
[1] = Hygroscopicity / water adsorption (thermogravimetry, TG-FTIR); type: physicochemical; settings: for hygroscopicity / adsorbed water content: dihydrochloride; for adsorbed water content: water released on heating at 10° C./minute
Procedure: 1.05 gram of (6R)-L-erythro-tetrahydrobiopterin dihydrochloride are dissolved in 4.0 ml of bi-distilled water at 23±2° C. The solution is filtrated through a 0.22 μm millipore filtration unit and the filtrate is transferred into a 250 ml round flask. The solution in this flask is frozen by placing the flask into a bed with solid carbon dioxide at −78° C. The flask with the frozen content is then connected to a laboratory freeze dryer operating at a starting pressure of about 0.05 mbar. After about 20 hours the freeze drying is complete and the vacuum flask is disconnected from the freeze dryer and about 1.0 g of white, crystalline solid material is obtained. […] The sample begins to decompose above 200° C. TG-FTIR: Thermogravimetric measurements are carried out with a Netzsch Thermo-Micro-balance TG 209 coupled to a Bruker FTIR Spectrometer Vector 22 (sample pans with a pinhole, N2 atmosphere, heating rate 10 K/min).

[2] = Phase equilibration / suspension stability tests in solvents, solid form by FT Raman and X-ray diffraction; type: physicochemical; settings: room temperature
Procedure: 105 mg of polymorph A according to example A1 are suspended in 1.0 ml tertiary butyl methyl ether (TBME). The suspension is stirred under nitrogen atmosphere for about 18 hours at room temperature, filtrated and the white solid residue is then dried under air.
90 mg of polymorph A according to example A1 are suspended in 2.0 ml tetrahydrofuran (THF) and the resulting suspension is stirred in air for five days at room temperature, filtrated and the white solid residue is then dried under air.
The white suspension is stirred for 5 hours at room temperature, filtrated and dried under nitrogen at room temperature.
The white suspension is stirred over night at room temperature, filtrated and then dried under nitrogen at room temperature.
The white suspension is stirred over night at room temperature, filtrated and dried under nitrogen room temperature.
The white suspension is stirred in air over a weekend at room temperature, filtrated and then dried in air at room temperature. […] The white suspension is stirred for about 20 hours at room temperature, filtrated and dried in air at room temperature.
The suspension is stirred for about 20 hours at room temperature under nitrogen atmosphere, filtrated and then drying under nitrogen.
The suspension is stirred at room temperature under nitrogen atmosphere for about 23 hours, filtrated and dried in air.
105 mg of hydrate form D according to example B3 are suspended in 2.0 ml IPA. The suspension is stirred at room temperature for about 18 hours, filtered and the solid then dried in air at room temperature for about 4 hours.
Powder X-ray Diffraction (PXRD): PXRD is performed either on a Philips 1710 or on a Philips X'Pert powder X-ray diffractometer using CuKα radiation. D-spacings are calculated from the 2θ using the wavelength of the CuKα1 radiation of 1.54060 A. The X-ray tube was operated at a Voltage of 45 kV (or 40 kV with X'Pert Instrument), and a current of 45 mA (or 40 mA with X'Pert Instrument). A step size of 0.02°, and a counting time of 2.4 s per step is applied. Generally, 2θ values are within an error of ±0.1-0.2°. The experimental error on the d-spacing values is therefore dependent on the peak location.
Raman spectroscopy: FT-Raman spectra are recorded on a Bruker RFS 100 FT-Raman system with a near infrared Nd:YAG laser operating at 1064 nm and a liquid nitrogen-cooled germanium detector. For each sample, 64 scans with a resolution of 2 cm^−1 are accumulated. Generally; 300 mW laser power is used.

[3] = Storage of solid forms under defined relative humidity, resulting crystal form; type: physicochemical
Procedure: Hydrate form C is retained. 71 mg of polymorph form A according to example A1 are stored in air under 52% relative humidity at room temperature for 17 days. […] About 50 mg of polymorph form F according to example A26 are placed on an powder X-ray diffraction sample holder of 0.8 mm thickness (TTK type, obtained form Anton Pear GmbH, Graz, Austria). The prepared sample holder is placed in the closed sample chamber of a Philips X'Pert powder X-ray diffractometer and the sample chamber is purged with nitrogen and partially saturated with water vapour to a resulting relative humidity of about 52%. After an exposure time of about 24 hour a powder X-ray diffraction pattern is recorded.

[4] = Relative stability of the crystal forms as described; settings: for relative stability of the crystal form: dihydrochloride
[5] = 52% relative humidity, room temperature, 17 days, dihydrochloride

C[C@H](O)[C@H](O)[C@H]1CNc2nc(N)[nH]c(=O)c2N1.Cl.Cl [form A, (6R)-L-erythro-tetrahydrobiopterin dihydrochloride]
hygroscopicity ([1]; listed as polymorph A): slightly hygroscopic | temperature above which the sample begins to decompose ([1]; thermogravimetry, heating rate 10° C./minute): above 200 °C | adsorbed water content ([1]; listed as polymorph A): about 3 percent by weight | crystal form after suspension stirring ([2]; tertiary butyl methyl ether, about 18 hours, nitrogen, dihydrochloride): unchanged polymorph form A | crystal form after suspension stirring ([2]; tertiary butyl methyl ether, about 18 hours, nitrogen, listed as polymorph A, dihydrochloride): essentially still corresponds to form A | crystal form after suspension stirring ([2]; tetrahydrofuran, five days, dihydrochloride): unchanged polymorph form A | crystal form after suspension stirring ([2]; tetrahydrofuran, five days, listed as polymorph A, dihydrochloride): still corresponds to form A | crystal form after storage [3, 5]: corresponds to hydrate form E

C[C@H](O)[C@H](O)[C@H]1CNc2nc(N)[nH]c(=O)c2N1.Cl.Cl [form B, (6R)-L-erythro-tetrahydrobiopterin dihydrochloride]
hygroscopicity ([1]; listed as Polymorph B): slightly hygroscopic | crystal form after suspension stirring ([2]; 2-Propanol, over night, nitrogen): polymorph form B | crystal form after suspension stirring ([2]; EtOH in air, over a weekend): slightly yellow crystalline solid, polymorph form B | crystal form after suspension stirring ([2]; EtOH, over night, nitrogen): polymorph form B | crystal form after suspension stirring ([2]; THF, about 20 hours, nitrogen (slightly yellow solid from the EtOH/air test)): slightly yellow crystalline solid, polymorph form B | crystal form after suspension stirring ([2]; acetone, over night, nitrogen): polymorph form B | crystal form after suspension stirring ([2]; acetonitrile containing 2% by weight of water, about 20 hours, nitrogen): polymorph form B | crystal form after suspension stirring ([2]; ethyl acetate containing 2% by weight of water, about 23 hours, nitrogen): polymorph form B | crystal form after suspension stirring ([2]; methanol, 5 hours, nitrogen): polymorph form B | crystal form after storage ([3]; open container under air, 75% relative humidity, 40° C., 5 days): still polymorph form B

C[C@H](O)[C@H](O)[C@H]1CNc2nc(N)[nH]c(=O)c2N1.Cl.Cl [form C, (6R)-L-erythro-tetrahydrobiopterin dihydrochloride]
hygroscopicity [1]: slightly hygroscopic | conversion of the crystal form ([4]; about 40° C. in air and lower relative humidity): easily converted to polymorph form B | crystal form after storage [3, 5]: retained

C[C@H](O)[C@H](O)[C@H]1CNc2nc(N)[nH]c(=O)c2N1.Cl.Cl [form D, (6R)-L-erythro-tetrahydrobiopterin dihydrochloride]
hygroscopicity [1]: slightly hygroscopic | crystal form after suspension stirring ([2]; IPA, about 18 hours): unchanged hydrate form D | stability on exposure to air humidity ([4]; ambient temperature): stable | relative stability of the crystal form [4]: most stable one under the known hydrates at ambient temperatures and a relative humidity of less than 70%; also recorded: most stable form under the hydrates | relative stability of the crystal form ([4]; listed as hydrate D): much higher stability than form C

C[C@H](O)[C@H](O)[C@H]1CNc2nc(N)[nH]c(=O)c2N1.Cl.Cl [form E, (6R)-L-erythro-tetrahydrobiopterin dihydrochloride]
hygroscopicity [1]: non-hygroscopic | crystal form after storage [3, 5]: retained

C[C@H](O)[C@H](O)[C@H]1CNc2nc(N)[nH]c(=O)c2N1.Cl.Cl [form F, (6R)-L-erythro-tetrahydrobiopterin dihydrochloride]
hygroscopicity ([1]; listed as polymorph F): slightly hygroscopic | adsorbed water content ([1]; listed as polymorph F): about 3 percent by weight | crystal form after exposure to humidity ([3]; nitrogen with water vapour, relative humidity about 52%, about 24 hour): crystalline form O

C[C@H](O)[C@H](O)[C@H]1CNc2nc(N)[nH]c(=O)c2N1.Cl.Cl [form G, (6R)-L-erythro-tetrahydrobiopterin dihydrochloride]
hygroscopicity [1]: hygroscopic

C[C@H](O)[C@H](O)[C@H]1CNc2nc(N)[nH]c(=O)c2N1.Cl.Cl [form H, (6R)-L-erythro-tetrahydrobiopterin dihydrochloride]
hygroscopicity [1]: hygroscopic

C[C@H](O)[C@H](O)[C@H]1CNc2nc(N)[nH]c(=O)c2N1.Cl.Cl [form I, (6R)-L-erythro-tetrahydrobiopterin dihydrochloride]
hygroscopicity [1]: hygroscopic

C[C@H](O)[C@H](O)[C@H]1CNc2nc(N)[nH]c(=O)c2N1.Cl.Cl [form J, (6R)-L-erythro-tetrahydrobiopterin dihydrochloride]
hygroscopicity ([1]; listed as polymorph J): slightly hygroscopic | relative humidity at which the form transforms back into form E [4]: above 75 % relative humidity

C[C@H](O)[C@H](O)[C@H]1CNc2nc(N)[nH]c(=O)c2N1.Cl.Cl [form K, (6R)-L-erythro-tetrahydrobiopterin dihydrochloride]
hygroscopicity ([1]; listed as polymorph K): slightly hygroscopic | adsorbed water content ([1]; listed as polymorph K): about 2.0 percent by weight | relative stability of the crystal form ([4]; listed as polymorph K): less stable than form B at higher temperatures

C[C@H](O)[C@H](O)[C@H]1CNc2nc(N)[nH]c(=O)c2N1.Cl.Cl [form M, (6R)-L-erythro-tetrahydrobiopterin dihydrochloride]
hygroscopicity [1]: slightly hygroscopic

C[C@H](O)[C@H](O)[C@H]1CNc2nc(N)[nH]c(=O)c2N1.Cl.Cl [form N, (6R)-L-erythro-tetrahydrobiopterin dihydrochloride]
hygroscopicity [1]: slightly hygroscopic

C[C@H](O)[C@H](O)[C@H]1CNc2nc(N)[nH]c(=O)c2N1.Cl.Cl [form O, (6R)-L-erythro-tetrahydrobiopterin dihydrochloride]
relative stability of the crystal form [4]: more stable than form F under ambient temperature and humidity conditions
